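Protocol summary: plate cells (96-well), add compound at 5 concentrations, incubate 48 h, interpolate endpoints linearly. The concentration for full growth arrest is given as TGI.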
Key:
Assay in all cases: inhibition of tumour cell growth, NCI panel, 48 h
[1] = tested on: HL-60(TB) leukemia
[2] = tested on: KM12 colon
[3] = tested on: EKVX NSCLC
[4] = tested on: HCT-15 colon
[5] = tested on: SK-OV-3 ovarian
[6] = tested on: SK-MEL-5 melanoma
[7] = tested on: OVCAR-4 ovarian
[8] = tested on: HOP-62 NSCLC
[9] = tested on: K-562 leukemia
[10] = tested on: MALME-3M melanoma
[11] = tested on: TK-10 renal
[12] = tested on: IGROV1 ovarian
[13] = tested on: SF-539 CNS
[14] = tested on: SNB-78 CNS
[15] = tested on: LXFL 529 NSCLC
[16] = tested on: A549 NSCLC
[17] = tested on: ACHN renal
[18] = tested on: RXF 393 renal
[19] = tested on: LOX IMVI melanoma
[20] = tested on: M14 melanoma
[21] = tested on: UACC-62 melanoma
[22] = tested on: SK-MEL-28 melanoma
[23] = tested on: CCRF-CEM leukemia
[24] = tested on: SN12C renal
[25] = tested on: DLD-1 colon
[26] = tested on: SNB-75 CNS
[27] = tested on: XF 498 CNS
[28] = tested on: OVCAR-8 ovarian
[29] = tested on: NCI-H522 lung
[30] = tested on: UO-31 renal
[31] = tested on: OVCAR-5 ovarian
[32] = tested on: NCI-H23 lung
[33] = tested on: SK-MEL-2 melanoma
[34] = tested on: HCC-2998 colon
[35] = tested on: KM20L2 colon
[36] = tested on: HT29 colon
[37] = tested on: UACC-257 melanoma
[38] = tested on: SW-620 colon
[39] = tested on: NCI-H460 lung
[40] = tested on: MOLT-4 leukemia
[41] = tested on: SF-295 CNS
[42] = tested on: SR leukemia
[43] = tested on: HOP-18 NSCLC
[44] = tested on: M19-MEL melanoma
[45] = tested on: OVCAR-3 ovarian
[46] = tested on: U251 CNS
[47] = tested on: HOP-92 NSCLC
[48] = tested on: A498 renal
[49] = tested on: DMS 273 small cell lung
[50] = tested on: SNB-19 CNS
[51] = tested on: DMS 114 small cell lung
[52] = tested on: SF-268 CNS
[53] = tested on: COLO 205 colon
[54] = tested on: HCT-116 colon
[55] = tested on: 786-0 renal
[56] = tested on: CAKI-1 renal
[57] = tested on: NCI-H226 lung
[58] = tested on: RPMI-8226 leukemia

Measured: TGI

OCc1nnn2c1CCC2
not listed: [48] | [49] | [50] | [51] | [52] | [53] | [54] | [55] | [56] | [57] | [58]
> 100 µM: all other assays above

COc1cc(Nc2cnc3cc(N)ccc3n2)cc(OC)c1OC
28.1 µM: [49]
not listed: [14] | [18] | [57] | [58]
> 100 µM: all other assays above

Cc1cc(OCC(O)CO)ccc1-c1ccccc1 (centres undefined)
80.4 µM: [48]
87.1 µM: [18]
23.7 µM: [38]
not listed: [5] | [8] | [13] | [19] | [25] | [31] | [41] | [58]
> 100 µM: all other assays above

CCOC(=O)COc1ccc(OCC(=O)OCC)c2c1C(=O)CCCC2=O
0.846 µM: [6]
not listed: [7] | [14] | [48] | [56]
> 100 µM: all other assays above

COC1CC2C3/C(=N/Nc4ccc([N+](=O)[O-])cc4[N+](=O)[O-])CCC2(C)C3C1 (centres undefined)
> 100 µM: [1] | [2] | [4] | [9] | [11] | [16] | [22] | [51] | [58] | [52] | [27] | [28] | [37] | [39] | [40] | [42] | [54]
not listed: [3] | [14] | [18] | [23]
> 10 µM: all other assays above

From PubChem BioAssay (NCI)
